For one data set, the system named is CHEAL. The data set can be described thus: greenhouse post-emergence herbicidal test. Format: in vivo, lambsquarters. As to conditions: application rates of 0.125 or 0.0625 kg/ha. The text has this: (§1) The seeds of the test plants were sown separately for each species. For the post-emergence treatment, the test plants were first grown to a height of from 3 to 15 cm, depending on the plant habit, and only then treated with the active compounds which had been suspended or emulsified in water. The test plants were for this purpose either sown directly and grown in the same containers, or they were first grown separately as seedlings and transplanted into the test containers a few days prior to treatment. The application rate for the post-emergence treatment was 0.125 and 0.0625 kg of a.s. (active substance)/ha. Depending on the species, the plants were kept at 10–25° C. or 20–35° C. The test period extended over 2 to 4 weeks. During this time, the plants were tended, and their response to the individual treatments was evaluated. The evaluation was carried out using a scale from 0 to 100. 100 means no emergence of the plants, or complete destruction of at least the aerial parts and 0 means no damage, or normal course of growth. The plants used in the greenhouse experiments were of the following species: [table]

For another data set, the system named is POLPE. Description: greenhouse post-emergence herbicidal test. In kind it is in vivo, ladys thumb. As to conditions: application rates of 0.125 or 0.0625 kg/ha.
From the text: as §1

A further data set deals with ABUTH. Description: greenhouse post-emergence herbicidal test. In kind it is in vivo, velvetleaf. As to conditions: application rates of 0.125 or 0.0625 kg/ha.
From the text: as §1

For the next data set, the system named is ECHCG. The data set can be described thus: greenhouse post-emergence herbicidal test. In kind it is in vivo, barnyard grass. As to conditions: application rates of 0.125 or 0.0625 kg/ha.
From the text: as §1

Another data set has as its system PHBPU. Description: greenhouse post-emergence herbicidal test. Format: in vivo, morning glory. As to conditions: application rates of 0.125 or 0.0625 kg/ha.
From the text: as §1

For the next data set, the system named is SETFA. Description: greenhouse post-emergence herbicidal test. In kind it is in vivo, giant foxtail. As to conditions: application rates of 0.125 or 0.0625 kg/ha.
From the text: as §1

For a further data set, the system named is AMARE. The data set can be described thus: greenhouse post-emergence herbicidal test. Format: in vivo, redroot pigweed. As to conditions: application rates of 0.125 or 0.0625 kg/ha.
From the text: as §1

The structures appear in SMILES notation.

In turn, `Cc1c(C(=O)C2=C(O)CCCC2=O)ccc(S(C)(=O)=O)c1S(C)(=O)=O` [Compound 2.1, 2-[2-Methyl-3,4-di(methylsulfonyl)benzoyl]cyclohexane-1,3-dione] came in with a melting point of 301 to 302 °C. In addition, in the data set with CHEAL, the “herbicidal post-emergence activity against CHEAL” value is given as “very good”. Moreover, in the data set on POLPE, the “herbicidal post-emergence activity against POLPE” value is on record as “very good”. Besides, the “herbicidal post-emergence activity against ABUTH” value in the data set on ABUTH is given as “very good”. The “herbicidal post-emergence activity against ECHCG” value in the data set on ECHCG is on record as “very good”.

In the case of `Cc1c(C(=O)C2=C(O)CC(C)CC2=O)ccc(S(C)(=O)=O)c1S(C)(=O)=O` (centres unmarked) [Compound 2.3], the melting point lay in the range of 235 to 239 °C. Besides, the “herbicidal post-emergence activity against CHEAL” value in the data set on CHEAL is reported as “very good”. Besides, the “herbicidal post-emergence activity against ABUTH” value in the data set on ABUTH is given as “very good”. Moreover, the “herbicidal post-emergence activity against PHBPU” value in the data set on PHBPU is given as “very good”. Also, in the data set on ECHCG, the “herbicidal post-emergence activity against ECHCG” value was “very good”.

`Cc1c(C(=O)C2=C(O)CCC(C)(C)C2=O)ccc(S(C)(=O)=O)c1S(C)(=O)=O` [Compound 2.4]: the “herbicidal post-emergence activity against CHEAL” value with CHEAL is given as “very good”. The “herbicidal post-emergence activity against SETFA” value in the data set with SETFA was “very good”. Also, the “herbicidal post-emergence activity against PHBPU” value in the data set on PHBPU is given as “very good”. For the same molecule, the “herbicidal post-emergence activity against ECHCG” value in the data set with ECHCG is on record as “very good”.

`Cc1c(C(=O)C2=C(O)CC(C)(C)CC2=O)ccc(S(C)(=O)=O)c1S(C)(=O)=O` [Compound 2.5]: in the data set with CHEAL, the “herbicidal post-emergence activity against CHEAL” value is “very good”. The “herbicidal post-emergence activity against AMARE” value in the data set with AMARE was “very good”. Moreover, the “herbicidal post-emergence activity against SETFA” value in the data set on SETFA is given as “very good”. Further, in the data set on ECHCG, the “herbicidal post-emergence activity against ECHCG” value was “very good”.

`Cc1c(C(=O)C2=C(O)CCCC2=O)ccc(Cl)c1S(C)(=O)=O` [Compound 2.6] showed a melting point of 137 to 140 °C. For the same molecule, the “herbicidal post-emergence activity against POLPE” value in the data set on POLPE was “very good”. In addition, in the data set on ABUTH, the “herbicidal post-emergence activity against ABUTH” value is “very good”. In the data set with SETFA, the “herbicidal post-emergence activity against SETFA” value is “very good”. Also, the “herbicidal post-emergence activity against ECHCG” value in the data set with ECHCG is given as “very good”.

`COc1ccc(C(=O)C2=C(O)CCCC2=O)c(C)c1S(C)(=O)=O` [Compound 2.7] had a melting point of 121 to 129 °C.

`COc1ccc(C(=O)C2=C(O)CC(C)(C)CC2=O)c(C)c1S(C)(=O)=O` [Compound 2.8] had a melting point of 163 to 165 °C.

`COc1ccc(C(=O)C2=C(O)CC(C)CC2=O)c(C)c1S(C)(=O)=O` (centres unmarked) [Compound 2.9] displayed a melting point of 106 to 112 °C.

For `Cc1c(C(=O)C2=C(O)CCCC2=O)ccc(OC(F)F)c1S(C)(=O)=O` [Compound 2.10], the melting point lay within 64 to 69 °C.

Take `Cc1c(C(=O)C2=C(n3cccn3)CCCC2=O)ccc(S(C)(=O)=O)c1S(C)(=O)=O` [Compound 3.1]: the melting point fell in the range of 275 to 277 °C.

Consider `Cc1c(C(=O)C2=C(n3cccn3)CC(C)CC2=O)ccc(S(C)(=O)=O)c1S(C)(=O)=O` (centres unmarked) [Compound 3.2], for which the melting point was 278 to 283 °C.

Values taken from patent US7196229B2, “Benzoylcyclohexenone derivatives” (BASF Aktiengesellschaft, priority 2001, dated 2007).
